Experimental data published in PubChem BioAssay AID316 (DTP/NCI, 2004).
Where “and” joins values, the source holds several entries; their conditions need not be identical. Equal values may be shown once. Inconclusive results and toxic doses are left out.

System: P1534 leukemia ip, CD2F1 mice, survival T/C
Assay: NCI In Vivo Anticancer Drug Screen. Data for tumor model P1534 Leukemia (intraperitoneal) in CD2F1 (CDF1) mice
Details: endpoint: mean survival time, higher = longer survival
Description: The antitumor activity of compounds was measured in mice bearing transplantable tumors. Survival or tumor size were measured and the results are expressed as the measurement made in the treated group (T) divided by the measurement made in the vehicle treated control group (C). The tumor model used in this assay is P1534 Leukemia (intraperitoneal) in CD2F1 (CDF1) mice

[1] = dose: 15.6 mg/kg/injection, schedule: Q01DX010 (ip), vehicle: saline
[2] = dose: 31.3 mg/kg/injection, schedule: Q01DX010 (ip), vehicle: saline
[3] = dose: 62.5 mg/kg/injection, schedule: Q01DX010 (ip), vehicle: saline
[4] = dose: 125.0 mg/kg/injection, schedule: Q01DX010 (ip), vehicle: saline
[5] = dose: 3.75 mg/kg/injection, schedule: Q01DX010 (ip), vehicle: saline
[6] = dose: 7.5 mg/kg/injection, schedule: Q01DX010 (ip), vehicle: saline
[7] = dose: 15.0 mg/kg/injection, schedule: Q01DX010 (ip), vehicle: saline
[8] = dose: 30.0 mg/kg/injection, schedule: Q01DX010 (ip), vehicle: saline
[9] = dose: 25.0 mg/kg/injection, schedule: Q01DX010 (ip), vehicle: saline
[10] = dose: 50.0 mg/kg/injection, schedule: Q01DX010 (ip), vehicle: saline
[11] = dose: 100.0 mg/kg/injection, schedule: Q01DX010 (ip), vehicle: saline
[12] = dose: 200.0 mg/kg/injection, schedule: Q01DX010 (ip), vehicle: saline
[13] = dose: 12.5 mg/kg/injection, schedule: Q01DX010 (sc), vehicle: steriod suspending solution
[14] = dose: 25.0 mg/kg/injection, schedule: Q01DX010 (sc), vehicle: steriod suspending solution
[15] = dose: 400.0 mg/kg/injection, schedule: Q01DX010 (ip), vehicle: saline
[16] = dose: 800.0 mg/kg/injection, schedule: Q01DX010 (ip), vehicle: saline
[17] = dose: 7.8 mg/kg/injection, schedule: Q01DX010 (ip), vehicle: saline
[18] = dose: 8.0 mg/kg/injection, schedule: Q01DX010 (ip), vehicle: saline

For CN(/N=N/N(C)c1ccccc1)c1ccccc1, the T/C [1] was 115 % of control, the T/C [2] was 103 % of control and the T/C [3] was 111 % of control. For the same molecule, the T/C [4] was 100 % of control.
In the case of CCC12CC(C(=O)OC)=C3Nc4cc(OC)ccc4C34CCN(CC3OC31)C42 (configuration not stated), the T/C [5] is reported as 96 % of control, the T/C [6] is reported as 100 % of control and the T/C [7] is reported as 90 % of control. For the same molecule, the T/C [8] was 96 % of control.
In the case of CS(=O)(=O)OCC(O)C(O)C(O)C(O)COS(C)(=O)=O (configuration not stated), the T/C [9] is reported as 107 % of control, the T/C [10] is reported as 103 % of control and 100 % of control and the T/C [11] is reported as 107 % of control. For the same molecule, the T/C [12] was 107 % of control and 121 % of control.
With CC/C(=C(/CC)c1ccc(O)cc1)c1ccc(O)cc1 the T/C [13] was 95 % of control and 100 % of control, the T/C [14] was 95 % of control and 100 % of control and the T/C (dose: 50.0 mg/kg/injection, schedule: Q01DX010 (sc), vehicle: steriod suspending solution) was 95 % of control and 100 % of control. The T/C (dose: 100.0 mg/kg/injection, schedule: Q01DX010 (sc), vehicle: steriod suspending solution) was 90 % of control and 100 % of control.
For O=C1C(=O)N(CN(CCO)CCO)c2ccccc21, the T/C [10] was 96 % of control, the T/C [11] was 100 % of control and the T/C [12] was 100 % of control. For the same molecule, the T/C [15] was 100 % of control.
In the case of CCCCNc1ncnc2c1cnn2C, the T/C [2] is reported as 100 % of control and the T/C [3] is reported as 88 % of control and 100 % of control.
For Clc1ncnc2nc[nH]c12, the T/C [6] was 106 % of control and 100 % of control, the T/C [7] was 94 % of control and the T/C [8] was 105 % of control. For the same molecule, the T/C (dose: 60.0 mg/kg/injection, schedule: Q01DX010 (ip), vehicle: saline) was 105 % of control.
In the case of CS(=O)(=O)OCC(O)C(O)COS(C)(=O)=O (configuration not stated), the T/C (dose: 20.0 mg/kg/injection, schedule: Q01DX010 (ip), vehicle: saline) is reported as 107 % of control, the T/C (dose: 40.0 mg/kg/injection, schedule: Q01DX010 (ip), vehicle: saline) is reported as 107 % of control and the T/C (dose: 80.0 mg/kg/injection, schedule: Q01DX010 (ip), vehicle: saline) is reported as 107 % of control. The T/C [11] was 103 % of control, the T/C (dose: 160.0 mg/kg/injection, schedule: Q01DX010 (ip), vehicle: saline) was 117 % of control and the T/C [12] was 103 % of control. For the same molecule, the T/C [15] was 107 % of control and the T/C [16] was 89 % of control.
In the case of C/C=C1\CN2C3C[C@H]1C(C(=O)OC)[C@H]2Cc1c3[nH]c2ccccc12 (some centres not stated), the T/C [6] is reported as 100 % of control, the T/C [7] is reported as 93 % of control and the T/C [8] is reported as 93 % of control.
For CN(C)[C@@H]1C(=O)C(C(N)=O)=C(O)[C@@]2(O)C(=O)C3=C(O)c4c(O)cccc4C[C@H]3C[C@@H]12, the T/C [5] was 107 % of control, the T/C [6] was 107 % of control and the T/C [7] was 100 % of control. The T/C [8] was 103 % of control and 100 % of control.
In the case of Clc1[nH]nc2ccccc12, the T/C [17] is reported as 100 % of control, the T/C [1] is reported as 96 % of control and the T/C [2] is reported as 96 % of control. The T/C [3] was 107 % of control and 100 % of control and the T/C [4] was 92 % of control.
In the case of Nc1nncs1, the T/C [6] is reported as 114 % of control.
With Nc1c(Br)cc2c(c1Br)Cc1cc([N+](=O)[O-])ccc1-2 the T/C [1] was 115 % of control, the T/C [2] was 107 % of control and 110 % of control and the T/C [3] was 107 % of control. For the same molecule, the T/C [4] was 110 % of control and 115 % of control and the T/C (dose: 250.0 mg/kg/injection, schedule: Q01DX010 (ip), vehicle: saline) was 107 % of control.
For CC(=O)OC(C)(C)/C=C/C(=O)[C@](C)(O)[C@H]1[C@H](O)C[C@@]2(C)[C@@H]3CC=C4[C@@H](C[C@H](O)C(=O)C4(C)C)[C@]3(C)C(=O)C[C@]12C, the T/C (dose: 0.16 mg/kg/injection, schedule: Q01DX010 (ip), vehicle: saline) was 96 % of control, the T/C (dose: 0.25 mg/kg/injection, schedule: Q01DX010 (ip), vehicle: saline) was 100 % of control and the T/C (dose: 0.38 mg/kg/injection, schedule: Q01DX010 (ip), vehicle: saline) was 103 % of control.
CC(/C=N/N=C(N)N)=N\NC(N)=S was tested, and the T/C [10] was 100 % of control, the T/C [11] was 100 % of control and the T/C [12] was 100 % of control.
With C[C@@H](N)[C@@H](O)c1ccccc1 the T/C (dose: 0.39 mg/kg/injection, schedule: Q01DX010 (ip), vehicle: saline) was 103 % of control, the T/C (dose: 0.78 mg/kg/injection, schedule: Q01DX010 (ip), vehicle: saline) was 100 % of control and the T/C (dose: 1.56 mg/kg/injection, schedule: Q01DX010 (ip), vehicle: saline) was 100 % of control. For the same molecule, the T/C (dose: 3.13 mg/kg/injection, schedule: Q01DX010 (ip), vehicle: saline) was 103 % of control.
In the case of O=c1cnn(C2OC(CO)C(O)C2O)c(=O)[nH]1 (configuration not stated), the T/C [11] is reported as 105 % of control and 107 % of control, the T/C [12] is reported as 105 % of control and 120 % of control and the T/C (dose: 300.0 mg/kg/injection, schedule: Q01DX010 (ip), vehicle: saline) is reported as 90 % of control and 94 % of control. The T/C [15] was 103 % of control and 110 % of control, the T/C (dose: 700.0 mg/kg/injection, schedule: Q01DX010 (ip), vehicle: saline) was 86 % of control and 89 % of control and the T/C [16] was 93 % of control and 101 % of control. For the same molecule, the T/C (dose: 1600.0 mg/kg/injection, schedule: Q01DX010 (ip), vehicle: saline) was 88 % of control.
For C[C@H]1/C(=C/C(=O)OCCN(C)C)CC[C@H]2[C@H]1C(=O)C[C@H]1C(C)(C)[C@@H](O)CC[C@]21C, the T/C (dose: 4.0 mg/kg/injection, schedule: Q01DX010 (ip), vehicle: saline) was 96 % of control and the T/C [18] was 113 % of control.
With COc1cc2c3c(c4cc(OC)c(OC)cc4c2cc1OC)CN1CCC[C@H]1C3 the T/C (dose: 3.9 mg/kg/injection, schedule: Q01DX010 (ip), vehicle: saline) was 115 % of control and the T/C [17] was 107 % of control.
For CN(C)c1ccc(/C=C\c2ccnc3ccccc23)cc1, the T/C [18] was 115 % of control, the T/C (dose: 12.0 mg/kg/injection, schedule: Q01DX010 (ip), vehicle: saline) was 115 % of control and the T/C (dose: 18.0 mg/kg/injection, schedule: Q01DX010 (ip), vehicle: saline) was 103 % of control and 100 % of control. The T/C (dose: 27.0 mg/kg/injection, schedule: Q01DX010 (ip), vehicle: saline) was 123 % of control.
C[n+]1c2ccccc2nc2c(N)cc(N)cc21 was tested, and the T/C (dose: 5.2 mg/kg/injection, schedule: Q01DX010 (ip), vehicle: saline) was 114 % of control.
C[C@]12C=CC(=O)C=C1CC[C@@H]1[C@@H]2[C@@H](O)C[C@@]2(C)[C@H]1CC[C@]2(O)C(=O)CO was tested, and the T/C [13] was 103 % of control and the T/C [14] was 106 % of control and 110 % of control.
For O=CC1CO1 (configuration not stated), the T/C (dose: 13.0 mg/kg/injection, schedule: Q01DX010 (ip), vehicle: saline) was 107 % of control, the T/C (dose: 19.0 mg/kg/injection, schedule: Q01DX010 (ip), vehicle: saline) was 107 % of control and the T/C (dose: 29.0 mg/kg/injection, schedule: Q01DX010 (ip), vehicle: saline) was 111 % of control. For the same molecule, the T/C (dose: 29.0 mg/kg/injection, schedule: Q01DX010 (ip), vehicle: steriod suspending solution) was 100 % of control, the T/C (dose: 44.0 mg/kg/injection, schedule: Q01DX010 (ip), vehicle: saline) was 100 % of control and the T/C (dose: 44.0 mg/kg/injection, schedule: Q01DX010 (ip), vehicle: steriod suspending solution) was 86 % of control.
For CC1=NN(c2ccccc2)C(=O)C1, the T/C (dose: 150.0 mg/kg/injection, schedule: Q01DX010 (ip), vehicle: water) was 94 % of control and the T/C (dose: 300.0 mg/kg/injection, schedule: Q01DX010 (ip), vehicle: water) was 91 % of control.
For COc1ccc2cc3[n+](cc2c1O)CCc1cc2c(cc1-3)OCO2, the T/C (dose: 12.5 mg/kg/injection, schedule: Q01DX010 (ip), vehicle: saline) was 111 % of control, the T/C [9] was 123 % of control and the T/C [10] was 115 % of control.
O=C(O)CCCc1ccc(N(CCCl)CCCl)cc1 was tested, and the T/C (dose: 6.25 mg/kg/injection, schedule: Q01DX010 (ip), vehicle: other) was 114 % of control and the T/C (dose: 25.0 mg/kg/injection, schedule: Q01DX010 (ip), vehicle: other) was 103 % of control.
In the case of COc1cc2c3c(c4ccc(OC)c(OC)c4c2cc1OC)CN1CCC[C@@H]1C3, the T/C (dose: 2.5 mg/kg/injection, schedule: Q01DX010 (ip), vehicle: water) is reported as 105 % of control, the T/C (dose: 5.0 mg/kg/injection, schedule: Q01DX010 (ip), vehicle: water) is reported as 102 % of control and the T/C (dose: 7.5 mg/kg/injection, schedule: Q01DX010 (ip), vehicle: water) is reported as 124 % of control. For the same molecule, the T/C (dose: 10.0 mg/kg/injection, schedule: Q01DX010 (ip), vehicle: water) was 113 % of control.
For CN(C)CC(=O)NCCCCCCCCCCNC(=O)CN(C)C, the T/C [11] was 100 % of control, the T/C [12] was 100 % of control and the T/C [15] was 107 % of control.
For NC(N)=NCCCC(N)C(=O)NCCCCCCNC(=O)C(N)CCCN=C(N)N (configuration not stated), the T/C [9] was 100 % of control, the T/C [10] was 96 % of control and the T/C [11] was 100 % of control. The T/C [12] was 100 % of control.
CC[n+]1c(-c2ccccc2)c2cc(N)ccc2c2ccc(N)cc21 was tested, and the T/C (dose: 1.25 mg/kg/injection, schedule: Q01DX010 (ip), vehicle: saline) was 117 % of control, the T/C (dose: 2.5 mg/kg/injection, schedule: Q01DX010 (ip), vehicle: saline) was 117 % of control and the T/C (dose: 10.0 mg/kg/injection, schedule: Q01DX010 (ip), vehicle: saline) was 150 % of control.
